Where two headings read alike, the source gives them in different places.
Key:
[1] = molecular target: T1, human SF-1 (Homo sapiens, UniProt Q13285); test: SF-1 Luc assay (Gal4DBD-SF-1LBD luciferase reporter in transfected CHO-K1 cells); type: cell-based; details: CHO-K1 cells transfected with GAL4-SF-1 plasmid, 40 hours incubation; read-out: hSF-1-Luc: EC50
T1 construct: expressed in transfected cells; host or cells: CHO-K1 cells (Chinese hamster ovary), transient cotransfection with pG5luc
Description: BamHI and XbaI sites introduced by the primers […] (forward) and […] (reverse) were used for subcloning the amplicon into pFA-CMV.
Cells were routinely cultured by splitting them from 1:10 to 1:20. […] Four hours after transfection, cells were trypsinized and suspended to a concentration of 1.6×10^5 cells/ml in supplemented Ham's F-12 media.
Assays: The collected cells were resuspended in the culture medium and plated into a 384 well-white plate (Corning Life Sciences, Acton, MA) at 8,000 cells/50 μL/well.
Measurement of SF-1 Transcriptional Activity: SF-1 transcriptional activity was detected as the intracellular Luc activity using SteadyLite Plus HTS Reporter Gene Assay System. After the measurement of the cell viability, the culture media in the 384 well-plate were completely removed. Then, 30 μL of the Luc substrate solution was added into each well and incubated for 10 min at room temperature. After the incubation, luminescence of each well was measured by a microplate reader.
Calculation of the SF-1 Transcriptional Activity (% of Control): The % of control for the transcriptional activity was calculated according to the following equation: % of control=A/B×100 Equation • A: luminescence count in the test article-treated CHO cells transfected with GAL4-SF-1 plasmid • B: mean luminescence count in the vehicle-treated CHO cells transfected with GAL4-SF-1 plasmid

[2] = tested on: rat Leydig tumor cell line R2C; test: R2C proliferation assay for SF-1 antagonists (EdU incorporation); type: cell-based; details: read-out: R2C: EC50
Method: SF-1 regulates progenitor cell formation and survival in adult Leydig cells. Anti-proliferative effects of SF-1 antagonists using a SF-1+ rat Leydig tumor cell line, R2C, was investigated. Cell proliferation was measured by detecting DNA incorporation of EdU, a nucleoside analogue that can be fluorescently tagged after cell fixation.
Proliferation of the rat Leydig tumor cell line R2C (ATCC® CCL-97™) was assessed using 5-ethynyl-2′-deoxyuridine (EdU), a nucleoside analogue incorporated during DNA synthesis that can be fluorescently tagged after cell fixation. Cycloheximide, a protein synthesis inhibitor, was used as a positive control for the assay.
R2C cells are maintained according to a protocol provided by the American Type Culture Collection (ATCC). At the time of assay, R2C cells were diluted to 1.0 million cells/mL with culture medium (F12 medium supplemented with 2% FBS and 1% Penicillin-Streptomycin) and 50 uL of cell suspension seeded into each well of 384-well clear bottom plates. The assay plates were incubated in a humidified, 37° C., 6% CO2 atmosphere for 24 hours. Serially diluted SF-1 antagonists, cycloheximide or vehicle (DMSO) were then applied to the R2C cells and incubated in a humidified, 37° C., 6% CO2 atmosphere for two days. EdU (Invitrogen), at a final concentration of 5 μM, was added to the cells and incubated for an additional 16 hours, after which cells were fixed with 10% formalin.
Cells were then washed and permeabilized in 0.5% TritonX-100/PBS solution at RT for 1 hour. EdU incorporation was detected by labeling EdU with 6-FAM azide (Lumiprobe) using a copper (I)-catalyzed Click reaction between an azide and alkyne. The reaction mixture consists of 5 mM ascorbic acid, 1 mM CuSO4, 1 μM 6-FAM azide dissolved in PBS buffer. […] For data normalization, the average fluorescence of DMSO wells was defined as 100%, and average fluorescence of 10 μM cycloheximide wells was defined as 0%. Curve fitting and EC50 determination were performed using the variable slope sigmoidal dose-response analysis.
R2C cells were routinely cultured in R2C culture medium. To assay SF-1 antagonist inhibitory activity, R2C cells were resuspended in the R2C plating medium and plated into a 384 well-clear bottom black plate at 20,000 cells/50 μL/well. […] 10 μL EdU plating solution were then dispensed into each well of assay plate incubated at 37° C., 6% CO2 for two days.
R2C proliferation is measured by detecting the fluorescent labelled EdU. The R2C assay plates were fixed by dispense 60 μL of 10% formalin into each well, and the plates were incubated at room temperature for 1 hour on an orbital shaker. The plates were washed with 80 μL of PBS three times, and cells were permeabilized by treating with 100 μL of PBS-0.5% TritonX-100 at RT for 1 hour on an orbital shaker. The plates were washed with 80 μL of PBS three times, and after the last wash, 25 μL of PBS was dispensed into each well. 25 μL of 2× mounting mix solution was then added into each well of fixed cells, and the plates were incubated at RT for 30 min in the dark on an orbital shaker. The cells were washed with 80 μL of PBS, three times, and after the last wash, 25 μL of PBS was dispensed into each well. […] The cells were washed with 80 μL of PBS, three times, and after the last wash, 50 μL of PBS was dispensed into each well. Assay plates were sealed with aluminum foil, and fluorescence was measured using a Envision microplate reader.
The % of control for the proliferation activity was calculated according to the following equation: % of control=100×(A−C)/(B−C) Equation • A: fluorescence count in the test article-treated R2C cells • B: mean fluorescence count in the vehicle-treated R2C cells • C: mean fluorescence count in the 10 μM cycloheximide-treated R2C cells

T1 sequence (Q13285 198-461 limits assumed): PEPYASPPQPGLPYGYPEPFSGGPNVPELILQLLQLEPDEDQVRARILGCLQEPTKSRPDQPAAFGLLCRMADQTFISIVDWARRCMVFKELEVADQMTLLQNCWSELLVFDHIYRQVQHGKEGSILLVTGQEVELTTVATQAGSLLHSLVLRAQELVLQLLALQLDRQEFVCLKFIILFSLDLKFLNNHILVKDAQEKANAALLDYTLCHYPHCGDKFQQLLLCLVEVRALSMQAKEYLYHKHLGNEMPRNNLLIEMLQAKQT

SMILES: C[C@H](CO)Oc1ccc(NC(=O)Cn2cnc3c(Nc4ccc(C(F)(F)F)cc4)nn(C)c3c2=O)cc1 (single isomer, unassigned) [Compound 25]
- EC50 [1]: < 0.2 µM
- EC50 ([2]; R2C cells, EdU incorporation): < 0.2 µM

SMILES: C[C@@H](CO)Oc1ccc(NC(=O)Cn2cnc3c(Nc4ccc(C(F)(F)F)cc4)nn(C)c3c2=O)cc1 (single isomer, unassigned) [Compound 26]
- EC50 [1]: < 0.2 µM
- EC50 ([2]; R2C cells, EdU incorporation): < 0.2 µM

SMILES: Cn1nc(Nc2ccc(C(F)(F)F)cc2)c2ncn(CC(=O)N[C@H]3CCC[C@H](OC(F)F)C3)c(=O)c21 (single isomer, unassigned) [Compound 43]
- EC50 [1]: < 0.2 µM
- EC50 ([2]; R2C): < 0.2 µM

SMILES: Cn1nc(Nc2ccc(C(F)(F)F)cc2)c2ncn(CC(=O)N[C@@H]3CCC[C@@H](OC(F)F)C3)c(=O)c21 (single isomer, unassigned) [Compound 44]
- EC50 [1]: < 0.2 µM
- EC50 ([2]; R2C): < 0.2 µM

SMILES: Cn1nc(Nc2ccc(C(F)(F)F)cc2)c2ncn(CC(=O)N[C@H]3CCC[C@@H](OC(F)F)C3)c(=O)c21 (single isomer, unassigned) [Compound 48]
- EC50 [1]: < 0.2 µM
- EC50 ([2]; R2C): < 0.2 µM

SMILES: Cn1nc(Nc2ccc(C(F)(F)F)cc2)c2ncn(CC(=O)N[C@@H]3CCC[C@H](OC(F)F)C3)c(=O)c21 (single isomer, unassigned) [Compound 49]
- EC50 [1]: < 0.2 µM
- EC50 ([2]; R2C): < 0.2 µM

SMILES: COc1ccc(NC(=O)Cn2cnc3c(Nc4ccc(C(F)(F)F)cc4)nn(C)c3c2=O)cc1F [Compound 11, N-(3-fluoro-4-methoxyphenyl)-2-(1-methyl-7-oxo-3-((4-(trifluoromethyl)phenyl)amino)-1,7-dihydro-6H-pyrazolo[4,3-d]pyrimidin-6-yl)acetamide]
- EC50 [1]: < 0.2 µM
- EC50 ([2]; R2C cells, EdU incorporation): < 0.2 µM

SMILES: Cn1nc(Nc2ccc(C(F)(F)F)cc2)c2ncn(CC(=O)Nc3ccc(C(C)(C)S(C)(=O)=O)cc3)c(=O)c21 [Compound 12, 2-(1-methyl-7-oxo-3-((4-(trifluoromethyl)phenyl)amino)-1,7-dihydro-6H-pyrazolo[4,3-d]pyrimidin-6-yl)-N-(4-(2-(methylsulfonyl)propan-2-yl)phenyl)acetamide]
- EC50 [1]: < 0.2 µM
- EC50 ([2]; R2C cells, EdU incorporation): < 0.2 µM

SMILES: Cn1nc(Nc2ccc(C(F)(F)F)cc2)c2ncn(CC(=O)NC3CCOCC3)c(=O)c21 [Compound 13, 2-(1-methyl-7-oxo-3-((4-(trifluoromethyl)phenyl)amino)-1,7-dihydro-6H-pyrazolo[4,3-d]pyrimidin-6-yl)-N-(tetrahydro-2H-pyran-4-yl)acetamide]
- EC50 [1]: < 0.2 µM
- EC50 ([2]; R2C cells, EdU incorporation): 0.2 to 1 µM

SMILES: Cn1nc(Nc2ccc(C(F)(F)F)cc2)c2ncn(CC(=O)NCC3CCOCC3)c(=O)c21 [Compound 14, 2-(1-methyl-7-oxo-3-((4-(trifluoromethyl)phenyl)amino)-1,7-dihydro-6H-pyrazolo[4,3-d]pyrimidin-6-yl)-N-((tetrahydro-2H-pyran-4-yl)methyl)acetamide]
- EC50 [1]: < 0.2 µM
- EC50 ([2]; R2C cells, EdU incorporation): 0.2 to 1 µM

SMILES: Cn1nc(Nc2ccc(C(F)(F)F)cc2)c2ncn(CC(=O)NC(C)(C)C3CCOCC3)c(=O)c21 [Compound 15, 2-(1-methyl-7-oxo-3-((4-(trifluoromethyl)phenyl)amino)-1,7-dihydro-6H-pyrazolo[4,3-d]pyrimidin-6-yl)-N-(2-(tetrahydro-2H-pyran-4-yl)propan-2-yl)acetamide]
- EC50 [1]: 0.2 to 1 µM
- EC50 ([2]; R2C cells, EdU incorporation): 1 to 10 µM

SMILES: C[C@@H](NC(=O)Cn1cnc2c(Nc3ccc(C(F)(F)F)cc3)nn(C)c2c1=O)C1CCOCC1 [Compound 16, (R)-2-(1-methyl-7-oxo-3-((4-(trifluoromethyl)phenyl)amino)-1,7-dihydro-6H-pyrazolo[4,3-d]pyrimidin-6-yl)-N-(1-(tetrahydro-2H-pyran-4-yl)ethyl)acetamide]
- EC50 [1]: 0.2 to 1 µM
- EC50 ([2]; R2C cells, EdU incorporation): 1 to 10 µM

SMILES: C[C@H](NC(=O)Cn1cnc2c(Nc3ccc(C(F)(F)F)cc3)nn(C)c2c1=O)C1CCOCC1 [Compound 17, (S)-2-(1-methyl-7-oxo-3-((4-(trifluoromethyl)phenyl)amino)-1,7-dihydro-6H-pyrazolo[4,3-d]pyrimidin-6-yl)-N-(1-(tetrahydro-2H-pyran-4-yl)ethyl)acetamide]
- EC50 [1]: < 0.2 µM
- EC50 ([2]; R2C cells, EdU incorporation): 0.2 to 1 µM

SMILES: Cc1cc(C(C)(C)S(C)(=O)=O)ccc1NC(=O)Cn1cnc2c(Nc3ccc(C(F)(F)F)cc3)nn(C)c2c1=O [Compound 18, N-(2-methyl-4-(2-(methylsulfonyl)propan-2-yl)phenyl)-2-(1-methyl-7-oxo-3-((4-(trifluoromethyl)phenyl)amino)-1,7-dihydro-6H-pyrazolo[4,3-d]pyrimidin-6-yl)acetamide]
- EC50 [1]: < 0.2 µM
- EC50 ([2]; R2C cells, EdU incorporation): < 0.2 µM

SMILES: Cn1nc(Nc2ccc(C(F)(F)F)cc2)c2ncn(CC(=O)Nc3ccc(C(C)(C)C(=O)O)cc3)c(=O)c21 [Compound 19, 2-methyl-2-(4-(2-(1-methyl-7-oxo-3-((4-(trifluoromethyl)phenyl)amino)-1,7-dihydro-6H-pyrazolo[4,3-d]pyrimidin-6-yl)acetamido)phenyl)propanoic acid]
- EC50 [1]: 0.2 to 1 µM
- EC50 ([2]; R2C cells, EdU incorporation): 0.2 to 1 µM

SMILES: Cn1nc(Nc2ccc(C(F)(F)F)cc2)c2ncn(CC(=O)Nc3ccc(OCC(C)(C)O)cc3)c(=O)c21 [Compound 20, N-(4-(2-hydroxy-2-methylpropoxy)phenyl)-2-(1-methyl-7-oxo-3-((4-(trifluoromethyl)phenyl)amino)-1,7-dihydro-6H-pyrazolo[4,3-d]pyrimidin-6-yl)acetamide]
- EC50 [1]: < 0.2 µM
- EC50 ([2]; R2C cells, EdU incorporation): < 0.2 µM

SMILES: Cn1nc(Nc2ccc(C(F)(F)F)cc2)c2ncn(CC(=O)Nc3ccc(C(C)(C)C(N)=O)cc3)c(=O)c21 [Compound 21, 2-methyl-2-(4-(2-(1-methyl-7-oxo-3-((4-(trifluoromethyl)phenyl)amino)-1,7-dihydro-6H-pyrazolo[4,3-d]pyrimidin-6-yl)acetamido)phenyl)propanamide]
- EC50 [1]: < 0.2 µM
- EC50 ([2]; R2C cells, EdU incorporation): < 0.2 µM

SMILES: C[C@H](O)CO[C@H]1CC[C@H](NC(=O)Cn2cnc3c(Nc4ccc(C(F)(F)F)cc4)nn(C)c3c2=O)CC1 [Compound 22, N-((1S,4r)-4-((S)-2-hydroxypropoxy)cyclohexyl)-2-(1-methyl-7-oxo-3-((4-(trifluoromethyl)phenyl)amino)-1,7-dihydro-6H-pyrazolo[4,3-d]pyrimidin-6-yl)acetamide]
- EC50 [1]: < 0.2 µM
- EC50 ([2]; R2C cells, EdU incorporation): < 0.2 µM

SMILES: C[C@@H](O)CO[C@H]1CC[C@H](NC(=O)Cn2cnc3c(Nc4ccc(C(F)(F)F)cc4)nn(C)c3c2=O)CC1 [Compound 23, N-((1R,4r)-4-((R)-2-hydroxypropoxy)cyclohexyl)-2-(1-methyl-7-oxo-3-((4-(trifluoromethyl)phenyl)amino)-1,7-dihydro-6H-pyrazolo[4,3-d]pyrimidin-6-yl)acetamide]
- EC50 [1]: < 0.2 µM
- EC50 ([2]; R2C cells, EdU incorporation): < 0.2 µM

Source: patent US12617799B2, “Pyrazolopyrimidinone compounds” (Orphagen Pharmaceuticals, Inc., priority 2021, dated 2026)
